The text below walks through data of patent publication US4177287A, “Pharmaceutical compositions of N1 -acyl-N2 -phenyldiaminopropanols and process for their preparation” (Kali-Chemie Pharma GmbH, priority 1977, dated 1979).

The nature of one data set: in vivo. Particulars: mouse, po, single application, 7-day, unfed white NMRI-mice, read-out: Toxicity LD50 p.o. Here is the method:
The acute 7-day-toxicity is determined after a single application per os in white NMRI-mice which had not been fed. The calculation of the LD50 is carried out by probitanalysis by means of electronic data processing (see L. Cavalli-Sforza, Gustav Fischer-Verlag, Stuttgart (1964), Grundbegriffe der Biometrie, pp. 153).

Data set [1] has as its system indomethacine-induced ulcers. As to the kind of experiment: Effectiveness against indomethacine-induced ulcers in the rat. The class given is in vivo. Particulars: for inhibition at 68 mg/kg: dosage 68 mg/kg p.o. As to the method: To at least 6 male rats, having a body-weight of from 170 to 220 g, dosages of the test compounds are administered orally in an amount of 0.5 ml of a suspension medium per 100 g animal body-weight. The animals of the blank control group received the corresponding amount by volume of the suspension medium only. One hour after application of the test compounds, a dosage of 20 mg per kg of indomethacine contained in an amount of 0.5 ml of a suspension per 100 g animal body-weight, are orally applied to each animal for producing ulcers. 24 hours after the application of indomethacine, the animals are sacrificed.
The mean value and the standard deviation of the numbers of ulcers is calculated and subsequently the inhibiting activity of the test compounds and a standard compound are calculated as percent inhibition compared with the blank control group.

The subject of another data set is secretion in the stomach. As to the kind of experiment: Effect on the secretion in the stomach of narcotized rats (determination of the pH-value). The class given is in vivo, rat. The settings on record: for inhibition at 300 mg/kg: dosage 300 mg/kg p.o., narcotized rat, acetylcholine 10 mg/kg i.p. control = 100. Here is the method:
3. Effect on the secretion in the stomach of narcotized rats (determinationof the pH-value)
The test is performed on narcotized (urethane narcosis) male rats, having a body weight of from 200-230 g. For this purpose N/4000-sodium hydroxide solution is perfused into the stomachs of rats at a rate of 1 ml per minute by means of a cardia- and pylorus-catheter. The pH value of the perfusate, which leaves the stomach by way of the pylorus catheter, is determined by means of a one-rod measuring system, and is continuously registered.
In order to perform a comparative control test, after a pre-run period of 20 minutes, 10 mg per kg of acetylcholine are applied intraperitoneously. The resulting comparative control value is defined as being 100.
For evaluation, the surface-integral is calculated numerically with the aid of the rule of Simpson. The degree of inhibition of the secretion is calculated from the difference between the surfaces before and after the application of the test compound.

A further data set relates to ulcer. Particulars: background; cited from earlier work.
Setting [2] is: po, rat, indomethacine 20 mg/kg p.o., 24 hours.

Structures can show the parent of a compound that is named as a salt.

The term LD50 denotes the dose at which mortality reaches 50%. Usually inhibition stands for the relative decrease from the control value, in per cent. Turning to `CN(CC(O)CNC(=O)c1ccco1)c1ccc(Cl)cc1` (stereo not drawn) [Compound 4, N1-(2-furoyl)-N2-methyl-N2-(4-chlorophenyl)-1,3-diaminopropan-2-ol], the median lethal dose (LD50) at 168 h in “in vivo” was over 1470 mg/kg. This compound yielded an inhibition at 68 mg/kg in data set [1] (setting [2]) of 44%. The compound further displayed an inhibition at 300 mg/kg in the data set on secretion in the stomach of 0%.

In the case of `CN(CC(O)CNC(=O)c1ccccc1F)c1ccc(Cl)cc1` (stereo not drawn) [Compound 2, N1-(2-fluorobenzoyl)-N2-methyl-N2-(4-chlorophenyl)-1,3-diaminopropan-2-ol], the LD50 at 168 h in the data set “in vivo” is over 1470 mg/kg. In data set [1] (setting [2]), this compound gave an inhibition at 68 mg/kg of 49%. Moreover, 300 mg/kg produced 0% inhibition with secretion in the stomach.

As to `CN1[C@@H]2CC[C@H]1C[C@@H](OC(=O)C(CO)c1ccccc1)C2` (stereo partly drawn) [A, atropine sulfate, reference compound], the “effect on the ulcer (in words)” value in data set [1] (at the low dosage that inhibits secretion (footnote to Table 1)) is listed as “does not have a sufficiently”. In data set [1] (po, dosage 12 mg/kg p.o., rat, indomethacine 20 mg/kg p.o., 24 hours), this compound displayed an inhibition at 12 mg/kg of 26%. Besides, the inhibition at 0.5 mg/kg with secretion in the stomach (Rattus norvegicus, ip, read-out: Inhibition of secretion in the stomach, % inhibition) was 100%. For the same compound, the “inhibition of the secretion in the stomach (in words)” value in the data set on secretion in the stomach (at a low dosage already (footnote to Table 1)) is “strong inhibition”. In addition, in the data set with ulcer, the “side effects in ulcer therapy (in words)” value is listed as “side effects which occur already at low dosages” and the “success in ulcer therapy (in words)” value was “have not succeeded in ulcer therapy”.

On to `CN(CC(O)CNC(=O)c1ccccc1C(F)(F)F)c1ccc(Cl)cc1` (stereo not drawn) [Compound 3, N1-(2-trifluoromethylbenzoyl)-N2-methyl-N2-(4-chlorophenyl)-1,3-diaminopropan-2-ol], for which the LD50 at 168 h in “in vivo” is over 1470 mg/kg. In addition, testing at 75 mg/kg in data set [1] (po, dosage 75 mg/kg p.o., rat, indomethacine 20 mg/kg p.o., 24 hours) gave an inhibition of 40%. This compound also yielded an inhibition at 300 mg/kg with secretion in the stomach of 0%.

Take `COc1ccc(C(=O)NCC(O)CN(C)c2ccc(Cl)cc2)cc1OC` (stereo not drawn) [Compound 1, N1-(3,4-dimethoxybenzoyl)-N2-methyl-N2-(4-chlorophenyl)-1,3-diaminopropan-2-ol]: in “in vivo”, the LD50 at 168 h was over 6810 mg/kg. This compound also showed an inhibition at 68 mg/kg in data set [1] (setting [2]) of 44%. In the data set on secretion in the stomach, the inhibition at 300 mg/kg is 0%.
